# Article PMC6259918, “Antitrypanosomal Activity of Novel Benzaldehyde-Thiosemicarbazone Derivatives from Kaurenoic Acid ^†” (Molecules, 2011)
# Where two headings read alike, the source gives them in different places.
# How the values were obtained:
# [1] = Cytotoxicity assay (sulforhodamine B); assay type: cell-based; settings: rhesus monkey, LLMCK2 cells, 96 h incubation, mean ± SD
# Protocol: The cytotoxic effect was evaluated against LLMCK2 cells in 96-well plates. A suspension of 2.5 × 10^4 cells was added to each well and left to grow as a monolayer for 24 h at 37 °C in a 5% CO2/air mixture. After this period, different concentrations of the synthetic compounds and kaurenoic acid (10 to 100 µg/mL) were added to the wells, and the plate was incubated for 96 h under the same conditions described above. The cells were fixed in 10% trichloroacetic acid at 4 °C for 1 h, washed five times with distilled water, and allowed to dry at room temperature. A solution of 4% sulforhodamine B (in 1% acetic acid) was added to each well, and the plate was kept protected from light for 30 min at 4 °C. The wells were then washed four times with 1% acetic acid, an aliquot (150 µL) of 10 mM Tris-base was added, and the aliquot was homogenized for 15 min. The absorbance was read at 530 nm in a microplate spectrophotometer, and data were calculated as the percentage of inhibition of growth. A concentration for 50% cellular toxicity (CC50) was defined as the concentration that reduced the optic density of treated cells by 50% relative to untreated cells.
# [2] = tested on: epimastigote forms of T. cruzi (Y strain); test: Antitrypanosomal assay; assay type: cell-based, Trypanosoma cruzi; settings: for SI (selectivity index): SI: CC50 LLMCK2 / IC50 epimastigote; for IC50: mean ± SD
# Protocol: Stock solutions of the synthetic compounds and kaurenoic acid (5, 10, 50, and 100 µg/mL) were prepared in dimethylsulfoxide with their final concentrations not exceeding 1.0%. For the assay, epimastigote forms of T. cruzi (Y strain) were harvested during the exponential phase of growth, resuspended in liver infusion tryptose broth supplemented with 10% inactivated fetal bovine serum (Gibco Invitrogen Corporation, New York, NY, USA) and plated on 24-well plates at a concentration of 1 × 10^6 cells/mL. One milliliter of diluted compounds were included in each well and incubated for 96 h at 28 °C. Cell density was determined by counting the parasites in a hemocytometer chamber (Improved Double Neubauer) under a light microscope. All assays were carried out twice, in duplicate, on separate occasions.
# [3] = Trypanosoma cruzi, 96 h, epimastigote form of T. cruzi Y strain, 96 h at 28 °C, parasite counting, read-out: Epimastigote IC50
smiles,measurement,setting,value
"C=C1C[C@@]23CC[C@H]4[C@@](C)(CCC[C@@]4(C)C(=O)O)[C@@H]2CC[C@@H]1C3 [compound 1, ent-kaur-16-en-19-oic acid, reference compound]",CC50,[1],59.5 ± 0.1 µM
same,SI (selectivity index),[2],0.6
same,IC50,[2]; [3],102 µM
"C[C@@]12CCC[C@@](C)(C(=O)O)[C@H]1CC[C@@]13C[C@@H](CC[C@H]12)[C@](C)(N=C=S)C3 [compound 2, ent-Kauren-16α-isothiocyane-16β-methyl-19-oic acid]",CC50 at 96 h,[1],52 ± 0.3 µM
same,SI (selectivity index),[2],0.9
same,IC50,"[2]; Trypanosoma cruzi, 96 h, read-out: Epimastigote IC50, epimastigote form of T. cruzi Y strain, 96 h at 28 °C, parasite counting",58.4 µM
same,IC50,"[2]; read-out: Epimastigote IC50, epimastigote form of T. cruzi Y strain, 96 h at 28 °C, parasite counting",58.2 ± 0.2 µM
same,melting point,,174 °C
"C[C@@]12CCC[C@@](C)(C(=O)O)[C@H]1CC[C@@]13C[C@@H](CC[C@H]12)[C@](C)(SC#N)C3 [compound 3, ent-Kauren-16α-thiocyane-16β-methyl-19-oic acid]",CC50 at 96 h,[1],103.4 ± 0.7 µM
same,IC50,[2]; [3],43.7 µM
same,IC50,"[2]; epimastigote form of T. cruzi Y strain, 96 h at 28 °C, parasite counting, read-out: Epimastigote IC50",43.4 ± 5.6 µM
same,melting point,,165 °C
"C[C@@]12CCC[C@@](C)(C(=O)O)[C@H]1CC[C@@]13C[C@@H](CC[C@H]12)[C@](C)(NC(=S)NN)C3 [compound 4, N4-[ent-Kauren-16β-methyl-19-oic acid]-thiosemicarbazide]",CC50 at 96 h,[1],71.4 ± 0.7 µM
same,SI (selectivity index),[2],0.7
same,IC50,[2]; [3],107 ± 13 µM
same,melting point,,131 °C
"C[C@@]12CCC[C@@](C)(C(=O)O)[C@H]1CC[C@@]13C[C@@H](CC[C@H]12)[C@](C)(NC(=S)N/N=C/c1ccccc1)C3 [compound 5, N1-(E)-Phenyl-N4-[ent-kauren-16β-methyl-19-oic acid]-thiosemicarbazone]",CC50 at 96 h,[1],31.1 ± 1 µM
same,SI (selectivity index),[2],0.5
same,IC50,[2]; [3],68.2 ± 11.2 µM
same,melting point,,202 °C
"Cc1ccc(/C=N/NC(=S)N[C@]2(C)C[C@@]34CC[C@H]5[C@@](C)(CCC[C@@]5(C)C(=O)O)[C@@H]3CC[C@@H]2C4)cc1 [compound 6, N1-(E)-[4-Methylphenyl]-N4-[ent-kauren-16β-methyl-19-oic acid]-thiosemicarbazone]",CC50 at 96 h,[1],122.4 ± 1 µM
same,IC50,[2]; [3],23.4 ± 7.7 µM
same,melting point,,223 °C
"COc1ccc(/C=N/NC(=S)N[C@]2(C)C[C@@]34CC[C@H]5[C@@](C)(CCC[C@@]5(C)C(=O)O)[C@@H]3CC[C@@H]2C4)cc1 [compound 7, N1-(E)-[4-Methoxyphenyl]-N4-[ent-kauren-16β-methyl-19-oic acid]-thiosemicarbazone]",CC50 at 96 h,[1],78.2 µM
same,IC50,[2]; [3],16 ± 4.4 µM
same,melting point,,214.5 °C
"C[C@@]12CCC[C@@](C)(C(=O)O)[C@H]1CC[C@@]13C[C@@H](CC[C@H]12)[C@](C)(NC(=S)N/N=C/c1ccc(O)cc1)C3 [compound 8, N1-(E)-[4-Hydroxyphenyl]-N4-[ent-kauren-16β-methyl-19-oic acid]-thiosemicarbazone]",CC50 at 96 h,[1],29.5 ± 0.8 µM
same,IC50,[2]; [3],18.3 ± 4 µM
same,melting point,,191.5 °C
"CN(C)c1ccc(/C=N/NC(=S)N[C@]2(C)C[C@@]34CC[C@H]5[C@@](C)(CCC[C@@]5(C)C(=O)O)[C@@H]3CC[C@@H]2C4)cc1 [compound 9, N1-(E)-[4-Dimethylaminophenyl]-N4-[ent-kauren-16β-methyl-19-oic acid]-thiosemicarbazone]",CC50 at 96 h,[1],248.5 ± 0.6 µM
same,IC50,[2]; [3],79.5 ± 17.9 µM
same,melting point,,231 °C
"C[C@@]12CCC[C@@](C)(C(=O)O)[C@H]1CC[C@@]13C[C@@H](CC[C@H]12)[C@](C)(NC(=S)N/N=C/c1ccccc1[N+](=O)[O-])C3 [compound 10, N1-(E)-[2-Nitrophenyl]-N4-[ent-kauren-16β-methyl-19-oic acid]-thiosemicarbazone]",CC50 at 96 h,[1],17.1 ± 0.1 µM
same,IC50,[2]; [3],2 ± 1.1 µM
same,melting point,,211 °C
"C[C@@]12CCC[C@@](C)(C(=O)O)[C@H]1CC[C@@]13C[C@@H](CC[C@H]12)[C@](C)(NC(=S)N/N=C/c1cccc([N+](=O)[O-])c1)C3 [compound 11, N1-(E)-[3-Nitrophenyl]-N4-[ent-kauren-16β-methyl-19-oic acid]-thiosemicarbazone]",CC50 at 96 h,[1],104.8 ± 0.4 µM
same,IC50,[2]; [3],19 µM
same,melting point,,217 °C
"C[C@@]12CCC[C@@](C)(C(=O)O)[C@H]1CC[C@@]13C[C@@H](CC[C@H]12)[C@](C)(NC(=S)N/N=C/c1ccc([N+](=O)[O-])cc1)C3 [compound 12, N1-(E)-[4-Nitrophenyl]-N4-[ent-kauren-16β-methyl-19-oic acid]-thiosemicarbazone]",CC50 at 96 h,[1],15.2 µM
same,SI (selectivity index),[2],0.1
same,IC50,[2]; [3],117 ± 12.8 µM
same,melting point,,219.5 °C
"C[C@@]12CCC[C@@](C)(C(=O)O)[C@H]1CC[C@@]13C[C@@H](CC[C@H]12)[C@](C)(NC(=S)N/N=C/c1ccccc1Cl)C3 [compound 13, N1-(E)-[2-Chlorophenyl]-N4-[ent-kauren-16β-methyl-19-oic acid]-thiosemicarbazone]",CC50 at 96 h,[1],364 ± 11.3 µM
same,IC50,[2]; [3],39.4 ± 14.3 µM
same,melting point,,202.5 °C
"C[C@@]12CCC[C@@](C)(C(=O)O)[C@H]1CC[C@@]13C[C@@H](CC[C@H]12)[C@](C)(NC(=S)N/N=C/c1cccc(Cl)c1)C3 [compound 14, N1-(E)-[3-Chlorophenyl]-N4-[ent-kauren-16β-methyl-19-oic acid]-thiosemicarbazone]",CC50 at 96 h,[1],56.2 ± 0.4 µM
same,IC50,[2]; [3],23.5 ± 7 µM
same,melting point,,207 °C
"C[C@@]12CCC[C@@](C)(C(=O)O)[C@H]1CC[C@@]13C[C@@H](CC[C@H]12)[C@](C)(NC(=S)N/N=C/c1ccc(Cl)cc1)C3 [compound 15, N1-(E)-[4-Chlorophenyl]-N4-[ent-kauren-16β-methyl-19-oic acid]-thiosemicarbazone]",CC50 at 96 h,[1],28.7 ± 1.1 µM
same,IC50,[2]; [3],14.9 ± 0.3 µM
same,melting point,,223.5 °C
